The target of series [1] is T1, GlTgs (Giardia duodenalis, UniProt A8BW33).
T1 sequence (A8BW33 1-258): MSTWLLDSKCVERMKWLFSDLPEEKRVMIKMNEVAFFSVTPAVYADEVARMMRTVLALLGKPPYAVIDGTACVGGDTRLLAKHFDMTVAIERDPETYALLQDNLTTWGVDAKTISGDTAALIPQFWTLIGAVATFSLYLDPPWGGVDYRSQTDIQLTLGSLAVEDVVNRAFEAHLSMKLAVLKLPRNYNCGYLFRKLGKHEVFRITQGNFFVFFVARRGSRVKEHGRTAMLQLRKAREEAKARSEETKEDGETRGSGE
Briefly: 3H methyl transfer, PEI-cellulose TLC. The class given is biochemical. To be noted: 0.1 mM m7GDP, 5 μM [methyl-3H]AdoMet, 37 °C; single methylation to DMG.

For series [2], the target named is T2, TvTgs (Trichomonas vaginalis, UniProt A2DM16).
T2 sequence (A2DM16 1-280): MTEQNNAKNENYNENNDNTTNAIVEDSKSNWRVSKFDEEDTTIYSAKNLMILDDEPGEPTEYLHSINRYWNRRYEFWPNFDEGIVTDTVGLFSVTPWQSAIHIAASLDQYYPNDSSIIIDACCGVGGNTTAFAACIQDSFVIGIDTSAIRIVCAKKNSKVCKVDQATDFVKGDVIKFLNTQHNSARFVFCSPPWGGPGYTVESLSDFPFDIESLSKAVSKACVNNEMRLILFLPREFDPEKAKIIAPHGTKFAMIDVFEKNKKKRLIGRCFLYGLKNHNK
The experiment in a line: radiometric 3H methyl transfer, DEAE filter. The class given is biochemical.

Substrate in series [3]: C[n+]1cn([C@@H]2O[C@H](COP(=O)(O)OP(=O)(O)O)[C@@H](O)[C@H]2O)c2nc(N)[nH]c(=O)c21
Briefly: radiometric 3H methyl transfer, DEAE filter. The class given is biochemical, Trichomonas vaginalis. Particulars: [methyl-3H]AdoMet co-substrate, pH 7.5, 37 °C.

Substrate in series [4]: C[n+]1cn([C@@H]2O[C@H](COP(=O)(O)OP(=O)(O)OP(=O)(O)O)[C@@H](O)[C@H]2O)c2nc(N)[nH]c(=O)c21
The experiment in a line: radiometric 3H methyl transfer, DEAE filter. To be noted: [methyl-3H]AdoMet co-substrate, pH 7.5, 37 °C. The format is biochemical, Trichomonas vaginalis.

On to `C[n+]1cn([C@@H]2O[C@H](COP(=O)(O)OP(=O)(O)O)[C@@H](O)[C@H]2O)c2nc(N)[nH]c(=O)c21` [m^7GDP], for which the “3H methyl transfer, PEI-cellulose TLC” value in series [1] is “TvTgs (Tv), GlTgs (Gl) and SpTgs (Sp) were compared side by side”.

Consider `Nc1ncnc2c1ncn2[C@@H]1O[C@H](CSCC[C@H](N)C(=O)O)[C@@H](O)[C@H]1O` [AdoHcy], for which the half-maximal inhibitory concentration (IC50) (usually the midpoint of a concentration-inhibition curve) in series [2] was around 250 µM.

B1: TvTgs (Trichomonas vaginalis G3) (protein)
chain: T2 sequence (A2DM16 1-280)
As for B1, the Km in series [3] was 250 +/– 30.7 μM; in series [4] it was 1.59 +/– 0.205 mM.

Source of the values: publication PMC2588526 (Nucleic Acids Research, 2008).
